Results from publication PMC9220251, “Modulation of the 20S Proteasome Activity by Porphyrin Derivatives Is Steered through Their Charge Distribution” (Biomolecules, 2022).

Columns and labels:
[1] = molecular target: T1, human 20S proteasome (h20S); assay: Suc-LLVY-AMC hydrolysis, global fit of kcat and Km against TMPC (two-state model, n = […], m = […]); format: biochemical; details: competitive inhibitory site, substrate-free enzyme in basal state A; model also has three cooperative allosteric sites and state B with separate constants (KAU, KAL, KBU, KBL, KBI); 50 mM Tris-HCl pH
T1 construct: gene PSMA6; purified 20S core particle, purchased from Boston Biochem; 28 subunits in four heptameric rings; no regulatory particle; with Proteasome subunit beta type-6; Proteasome subunit beta type-7; Proteasome subunit beta type-3; Proteasome subunit beta type-2; Proteasome subunit beta type-1; Proteasome subunit beta type-4

[2] = system: T1, human 20S proteasome (h20S); assay: STD-NMR and WaterLOGSY; format: binding; details: 50 mM HEPES, 100 mM NaCl, 1 mM DTT, 298 K; TMPC 175 μM

Kd [1]: 1000 nM
SMILES: C[n+]1ccc(-c2c3nc(c(-c4cc[n+](C)cc4)c4ccc([nH]4)c4ccc([nH]4)c(-c4cc[n+](C)cc4)c4ccc2[nH]4)C=C3)cc1 [TMPC]
STD-NMR and WaterLOGSY [2]: clearly indicate that the ligand interacts with the h20S
